Assay results from patent US8962265B2, “Mutant parasites for use as vaccines and platforms for screening for compounds” (Indiana University Research and Technology Corp., priority 2010, dated 2015).

Test system: TgIF2α
Assay: Western blot of TgIF2α phosphorylation
Assay type: cell-based, Toxoplasma gondii
Settings: wild-type parasites treated with the ionophore
Procedure: In order to confirm that the TgIF2α-S71A clone could not be phosphorylated under normal physiological condition, a Western blot of lysates from parasites treated with the ionophore A23187 was carried out using antisera that specifically recognizes TgIF2α which is phosphorylated at ser-71 or total TgIF2α protein (Narasimhan et al., 2008b; Sullivan Jr. et al., 2004b). Referring now to FIG. 1C, equal amounts of protein lysates from WT or TgIF2α-S71A tachyzoites were resolved on a 4-12% polyacrylamide gel and transferred to a membrane for immunoblotting with antibody that specifically recognizes TgIF2α phosphorylated at ser-71 (TgIF2α-P) or total TgIF2α protein. […]
Next addressed was whether TgIF2K-D is required for induced TgIF2α phosphorylation when the parasite is outside of the host cell. Referring now to FIG. 9A, TgIF2α phosphorylation was analyzed by separating cell lysates via denaturing SDS-PAGE, followed by western blotting using antibodies to total TgIF2α or phosphorylated TgIF2α (TgIF2α˜P). […]
Phosphorylation of TgIF2α was monitored by Western blotting performed in accordance with standard methods. […]
Western blot analyses of TgIF2α phosphorylation were carried out as previously described. […] HA-tagged proteins were detected by western blot analyses after resolving parasite lysate on a 3-8% Tris-acetate polyacrylamide gradient gel. […]

CNc1ccc2oc(C[C@H]3O[C@@]4(CC[C@H]3C)O[C@H]([C@H](C)C(=O)c3ccc[nH]3)[C@H](C)C[C@H]4C)nc2c1C(=O)O [A23187] was tested, and the “induction of TgIF2α phosphorylation” value was “potent inducer”.
